ChEMBL document CHEMBL1148025, “7-Substituted-melatonin and 7-substituted-1-methylmelatonin analogues: effect of substituents on potency and binding affinity” (Bioorg Med Chem, 2007)
The source made the active and inactive calls. The rule behind the calls is not given here.

Experiments:
[1] = target: Melatonin receptor type 1A (Homo sapiens, UniProt P48039); test: Displacement of 2[125I]iodomelatonin from human recombinant MT1 receptor expressed in NIH3T3 cells; assay type: cell-based
[2] = target: T1, Melatonin receptor type 1B (Homo sapiens, UniProt P49286); test: Displacement of 2[125I]iodomelatonin from human recombinant MT2 receptor expressed in NIH3T3 cells; assay type: cell-based
T1 sequence (P49286 whole entry): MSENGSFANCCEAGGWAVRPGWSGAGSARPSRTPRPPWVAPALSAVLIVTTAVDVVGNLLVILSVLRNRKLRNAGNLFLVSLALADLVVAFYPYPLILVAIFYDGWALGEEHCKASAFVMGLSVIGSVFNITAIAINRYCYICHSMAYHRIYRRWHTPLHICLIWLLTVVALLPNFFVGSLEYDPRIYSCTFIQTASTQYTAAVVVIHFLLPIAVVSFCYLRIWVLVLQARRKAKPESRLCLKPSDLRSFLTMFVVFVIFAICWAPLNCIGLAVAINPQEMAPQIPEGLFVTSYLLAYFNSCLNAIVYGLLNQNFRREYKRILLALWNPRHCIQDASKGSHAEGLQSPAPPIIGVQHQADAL

[3] = target: T2, Melatonin receptor type 1C (Xenopus laevis, UniProt P49219); test: Effect on pigment aggregation in Xenopus laevis melanophores; assay type: functional
T2 sequence (P49219 whole entry): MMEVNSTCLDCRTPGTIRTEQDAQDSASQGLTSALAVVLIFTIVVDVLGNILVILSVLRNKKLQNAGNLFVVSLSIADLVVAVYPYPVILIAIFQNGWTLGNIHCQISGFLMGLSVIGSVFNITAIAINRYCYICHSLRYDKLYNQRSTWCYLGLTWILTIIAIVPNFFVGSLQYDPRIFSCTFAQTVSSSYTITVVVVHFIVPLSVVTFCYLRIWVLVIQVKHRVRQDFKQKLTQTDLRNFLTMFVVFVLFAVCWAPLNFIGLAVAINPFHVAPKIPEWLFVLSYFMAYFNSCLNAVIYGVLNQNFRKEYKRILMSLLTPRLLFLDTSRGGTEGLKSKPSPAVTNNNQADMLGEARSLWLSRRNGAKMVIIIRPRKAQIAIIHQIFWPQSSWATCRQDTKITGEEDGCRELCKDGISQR

[4] = target: T3, Melatonin receptor type 1C (Xenopus laevis) (UniProt P49219); test: Effect on pigment aggregation in Xenopus laevis melanophores at 10 uM; assay type: functional
T3 sequence (whole entry): T2 sequence (P49219 whole entry)

Sequence of Melatonin receptor type 1A (P48039 whole entry): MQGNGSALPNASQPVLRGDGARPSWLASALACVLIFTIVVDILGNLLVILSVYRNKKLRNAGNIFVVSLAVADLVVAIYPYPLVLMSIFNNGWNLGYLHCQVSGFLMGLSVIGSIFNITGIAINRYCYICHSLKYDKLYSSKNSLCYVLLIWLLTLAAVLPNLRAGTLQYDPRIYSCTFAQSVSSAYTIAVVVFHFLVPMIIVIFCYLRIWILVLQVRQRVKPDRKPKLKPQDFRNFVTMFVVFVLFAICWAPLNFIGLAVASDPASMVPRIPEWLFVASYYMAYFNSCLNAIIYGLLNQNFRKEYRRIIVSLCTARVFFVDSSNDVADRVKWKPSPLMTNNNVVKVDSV

Row | Compound | Ki [1] [nM] | Ki [2] [nM] | EC50 [3] [nM] | Activity [4]
1 | COc1cc(C)c2c(c1)c(CCNC(C)=O)cn2C | 8.71 | 1.55 | 9.77 | –
2 | CCCC(=O)NCCc1cn(C)c2c(Br)cc(OC)cc12 | 33.1 | 2.14 | 52.5 | –
3 | CCC(=O)NCCc1cn(C)c2c(C)cc(OC)cc12 | 15.8 | 2.63 | 15.8 | –
4 | COc1cc(C)c2[nH]cc(CCNC(C)=O)c2c1 | 2.69 | 1.74 | 45.7 | –
5 | COc1ccc2[nH]cc(CCNC(C)=O)c2c1 [MELATONIN] | – | – | 0.0794 | –
6 | COc1cc(-c2ccccc2)c2[nH]cc(CCNC(C)=O)c2c1 | 12900 | 3020 | 120 | –
7 | CCC(=O)NCCc1c[nH]c2c(C)cc(OC)cc12 | 1.78 | 1.1 | 31.6 | –
8 | COc1cc(Br)c2[nH]cc(CCNC(C)=O)c2c1 | 3.55 | 0.676 | 3.31 | –
9 | CCC(=O)NCCc1cn(C)c2c(-c3ccccc3)cc(OC)cc12 | 5890 | 676 | – | inactive
10 | CCC(=O)NCCc1c[nH]c2c(-c3ccccc3)cc(OC)cc12 | 617 | 617 | 155 | –
11 | CCC(=O)NCCc1c[nH]c2c(Br)cc(OC)cc12 | 4.17 | 0.537 | 11.5 | –
12 | CCCC(=O)NCCc1c[nH]c2c(Br)cc(OC)cc12 | 5.13 | 0.355 | 3.47 | –
13 | COc1cc(-c2ccccc2)c2c(c1)c(CCNC(C)=O)cn2C | 1260 | 457 | 339 | –
14 | CCCC(=O)NCCc1c[nH]c2c(C)cc(OC)cc12 | 2.88 | 0.676 | 12.6 | –
15 | CCC(=O)NCCc1cn(C)c2c(Br)cc(OC)cc12 | 14.1 | 2.29 | 64.6 | –
16 | CCCC(=O)NCCc1cn(C)c2c(-c3ccccc3)cc(OC)cc12 | 5370 | 851 | – | inactive
17 | COc1cc(Br)c2c(c1)c(CCNC(C)=O)cn2C | 10.5 | 1.32 | 24.5 | –
18 | CCCC(=O)NCCc1c[nH]c2c(-c3ccccc3)cc(OC)cc12 | 955 | 871 | 45.7 | –
19 | CCCC(=O)NCCc1cn(C)c2c(C)cc(OC)cc12 | 19.5 | 1.35 | 16.6 | –
